The record followed here is patent US9648880B2, “Antifungal agents and uses thereof” (University of Massachusetts, priority 2012, dated 2017).

What all share (assay type): cell-based, Candida albicans
In assay [1] the test system is C. albicans constitutively filamentous strains. The assay can be described thus: hyphal development induced by multiple signals (mutant strains, GlcNAc, hydroxyurea). On the set-up: genotoxic stress-induced filamentation: dose or concentration left out as unconfirmed. As for the experimental part: FIGS. 30A-30E. Compound #4 inhibits hyphal development induced by multiple signals. FIG. 30A is a schematic diagram of some of the signaling pathways that govern hyphal gene expression. For simplicity, only those genes investigated in this figure are shown. FIG. 30B is a series of photomicrographs showing the effects of compound #4 on constitutively filamentous mutant strains in the cAMP-PKA pathway. Wild-type SC5314, efg1-T206E, ras1-G13V, and ADH1pr-gpa2-Q355L cells were grown in the presence of 1% DMSO or 50 μM compound #4 in Spider medium at 37° C. for 4 hrs, stained with Calcofluor white and photographed using DIC or fluorescent microscopy (20× objective). FIG. 30C is a series of two photomicrographs showing that Compound #4 blocks filamentation induced by GlcNAc or constitutive overexpression of the GlcNac-activated transcription factor Cph1. Images obtained as in FIG. 30B. […] SC5314 cells grown in YPD at 30° C. in the presence of 50 mM hydroxyurea (HU) in combination with either 1% DMSO or […]. Images obtained as in FIG. 30B. FIG. 30E is a series of photomicrographs showing that Compound #4 inhibits the hyperfilamentous growth of a strain that constitutively overexpresses the Gpr1 protein. Colonies were grown on solid Spider media agar overlayed with either 1% DMSO or 50 μM #4 and incubated at 37° C. for 3 days. Colony edges were imaged with a 10× objective.
To explore the mechanism of compound #4 action, we tested whether compound #4 would alter hyphal induction in mutants that hyperactivate the filamentation process. For example, hyphal induction by Spider media requires the cyclic AMP-protein kinase A (cAMP-PKA) pathway; FIG. 30A. Stimulation of this pathway drives PKA to phosphorylate transcription factor Efg1, activating Efg1 to increase expression of genes required for hyphal morphogenesis.
For example, the modified sugar N-acetyl-glucosamine (GlcNac) also stimulates hyphal morphogenesis, but does so independently of the cAMP-PKA pathway, instead activating the transcription factor Cph1.
In addition to nutrient-mediated signals, genotoxic stress promotes hyphal morphogenesis in C. albicans, and the DNA damage signaling kinase Rad53 is required for the hyphal transition.

In a further assay the test system is C. albicans SC5314 cells. Description: pretreatment of C. albicans cells, then adhesion assay. The following applies: 25 μM; alamarBlue or GFP detection. As for the experimental part: FIGS. 11A-11D. Compound #4 can coat surfaces and reduce subsequent fungal adhesion. […] is a graph showing the results of pretreatment of polystyrene with candidate compounds. Indicated compounds at 50 μM were incubated in polystyrene 96-well plates overnight. Wells were washed three times with 100 μl of PBS. C. albicans adhesion was then measured using the vital dye alamarBlue, with no additional drug treatment. FIG. 11B is a graph showing titration of compounds #1, 4 and 9 for pre-binding to polystyrene. Indicated concentrations of compounds were pre-incubated with polystyrene plates as above prior to the adhesion assays. FIG. 11C is a graph showing the inhibition of adhesion by pretreatment of C. albicans SC5314 cells with compound #4 prior to introduction to plastic. SC5314 cells were treated with 25 μM compound #4 or DMSO in liquid culture prior to their introduced into polystyrene plates. Cells were washed with PBS prior to resuspension into SCM and seeding into 96-well plates for adhesion assays using alamarBlue detection of remaining cells. […] FIG. 11D is a graph showing the results of an assay performed as in FIG. 11C, except that SC5314-GFP cells were used, and then detected via fluorescence measurement. edt1 indicates non-adherent mutant cells, PBS indicates background fluorescence in absence of cells. […]
Background: The colour change of resazurin is a common sign of viable cells or microbes.

Assay [2] has as its system fluconazole-resistant C. albicans strains. Description: fluconazole synergy assay. The following applies: 24 hrs, 37° C.; alamarBlue without wash. As to the method:
FIGS. 10A-10B. […] Candida strains were identified from AIDS patients (3919, an initial progenitor isolate, and the subsequently isolated 4617 and 4639 strains). These were coincubated in the presence of either compounds #4, #Q1, fluconazole alone or a combination of fluconazole with either #4 or #Q1 for 24 hrs in polystyrene plates at 37° C. Viability was assessed using alamarBlue reagent as described (Youngsaye, supra).
Finally, we tested whether compound #4 would inhibit growth of fluconazole-resistant C. albicans strains in the presence of low levels of fluconazole, because that is the activity described for compound Q1 (Youngsaye supra). To measure cell viability rather than adhesion, we performed alamarBlue-based viability measurements without wash steps, using fluconazole-resistant C. albicans strains obtained from an AIDS patient who had been treated with fluconazole for oral candidaisis (Bachmann, 2002).
Assays to test for synergies between compound #4 and fluconazole were performed as described (Youngsaye, 2011, supra), except we used a 96-well rather than a 384-well format. […] At the end of 24 hours of incubation, viability was evaluated without washing steps, using alamarBlue as previously described (Youngsaye, 2011, supra).

Regarding `Cc1ccc(C(=O)N2CCN(c3ccc([N+](=O)[O-])cc3)CC2)cc1Cl` [Compound 4], in assay [1], the “hyphae driven by GlcNac-containing media or overexpression of Cph1” value is given as “also inhibits formation of hyphae in these cases”. Further, the “morphology of hyperfilamentous cAMP-PKA pathway mutants (ras1-G13V, gpa2-Q355L, efg1-T206E)” value in assay [1] (50 μM, Spider medium 37° C., 4 hrs) is listed as “retained a planktonic, budded morphology”. The “hyphal morphogenesis of cells overexpressing Gpr1” value in assay [1] (50 μM, solid Spider media, 37° C., 3 days) is listed as “blocked hyphal morphogenesis in these cells”. In addition, the genotoxic stress-induced filamentation entry in assay [1] (YPD 30° C.) was “form hyphae regardless of the presence of compound #4”. The “adhesion of pre-treated cells” value in the assay with C. albicans SC5314 cells was “could reduce adhesion of pre-treated cells”. The “viability/growth of fluconazole-resistant strains, alone or with low fluconazole” value in assay [2] is recorded as “did not affect fluconazole-resistant C. albicans viability, whether alone or in the presence of fluconazole”.
